According to US20240115571A1, “COMBINATION THERAPY FOR TREATING ABNORMAL CELL GROWTH” (priority 2021, published 2024):

Tested on: EGFR mutant H1975 osimertinib-resistant (Dell9/T790M/C797S) NSCLC model
Test: H1975 osimertinib-resistant xenograft tumor mouse study
Format: in vivo, Balb/c nude mice
Settings: VS-6766 0.3 mg/kg PO QD; osimertinib 2.5 mg/kg QD
Protocol: EGFR mutant H1975 NSCLC tumor cells were obtained from ATCC, EGFR mutant H1975 osimertinib-resistant NSCLC tumor cells were generated by Wuxi AppTec, and Balb/c nude mice were obtained from Beijing Vital River Laboratory Animal Technology. Tumor challenge was initiated by subcutaneous inoculation of 5×10^6 tumor cell suspensions into the right flank of recipient mice.
Tumor sizes (mm^3) and body weights were measured 2 times per week for the duration of the study. At the time of routine monitoring, the animals were checked for any effects of tumor growth and treatments on normal behavior such as mobility, food and water consumption (by looking only), and body weight gain/loss, eye/hair matting and any other abnormal effect.

SMILES: CNS(=O)(=O)Nc1nccc(Cc2c(C)c3ccc(Oc4ncccn4)cc3oc2=O)c1F [VS-6766]
- survival compared to osimertinib single agent: increased
- tumor growth inhibition compared to osimertinib single agent: increased tumor growth inhibition
